The kinase profiling compilation of Christmann-Franck et al. (2016)
Several values for one entry are separate records, joined by “and”; a condition that tells them apart may be missing. Equal entries are not always repeated.

Experiments:
Assay in all cases: radiometric filter-binding kinase assay, Kinase HotSpot
Conditions in all cases: compound 0.5 µM; ATP 10 µM
CAMK2B (human) = CAMK2B (human) (UniProt Q13554)
GRK6 (human) = GRK6 (human) (UniProt P43250)
MARK1 (human) = MARK1 (human) (UniProt Q9P0L2)
TGFBR1 (human) = TGFBR1 (human) (UniProt P36897)
NEK4 (human) = NEK4 (human) (UniProt P51957)
ACVR1 (human) = ACVR1 (human) (UniProt Q04771)
CDK2 CCNE1 (human) = CDK2 CCNE1 (human) (UniProt P24941+P24864)
LIMK1 (human) = LIMK1 (human) (UniProt P53667)
GRK7 (human) = GRK7 (human) (UniProt Q8WTQ7)
CAMK1D (human) = CAMK1D (human) (UniProt Q8IU85)
CDK4 CCND1 (human) = CDK4 CCND1 (human) (UniProt P24385+P11802)
PRKG1 (human) = PRKG1 (human) (UniProt Q13976)
CLK2 (human) = CLK2 (human) (UniProt P49760)
CLK2 (human), sequence (P49760 whole entry, looked up): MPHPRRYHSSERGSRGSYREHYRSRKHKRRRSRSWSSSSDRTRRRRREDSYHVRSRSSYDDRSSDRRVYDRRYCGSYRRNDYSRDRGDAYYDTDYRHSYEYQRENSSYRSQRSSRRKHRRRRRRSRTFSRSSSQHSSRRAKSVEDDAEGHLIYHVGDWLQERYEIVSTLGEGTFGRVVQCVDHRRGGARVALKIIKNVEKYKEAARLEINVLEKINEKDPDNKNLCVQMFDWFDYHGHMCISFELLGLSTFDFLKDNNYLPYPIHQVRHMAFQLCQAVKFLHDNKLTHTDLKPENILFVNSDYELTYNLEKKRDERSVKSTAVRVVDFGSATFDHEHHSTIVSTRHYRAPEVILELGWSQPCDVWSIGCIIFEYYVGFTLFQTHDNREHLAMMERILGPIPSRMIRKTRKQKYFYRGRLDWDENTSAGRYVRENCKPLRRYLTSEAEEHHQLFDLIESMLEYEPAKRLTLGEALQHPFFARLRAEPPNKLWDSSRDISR

MAP3K14 (human) = MAP3K14 (human) (UniProt Q99558)
CAMKK2 (human) = CAMKK2 (human) (UniProt Q96RR4)
PRKD1 (human) = PRKD1 (human) (UniProt Q15139)
HIPK4 (human) = HIPK4 (human) (UniProt Q8NE63)
HIPK4 (human), sequence (Q8NE63 whole entry, looked up): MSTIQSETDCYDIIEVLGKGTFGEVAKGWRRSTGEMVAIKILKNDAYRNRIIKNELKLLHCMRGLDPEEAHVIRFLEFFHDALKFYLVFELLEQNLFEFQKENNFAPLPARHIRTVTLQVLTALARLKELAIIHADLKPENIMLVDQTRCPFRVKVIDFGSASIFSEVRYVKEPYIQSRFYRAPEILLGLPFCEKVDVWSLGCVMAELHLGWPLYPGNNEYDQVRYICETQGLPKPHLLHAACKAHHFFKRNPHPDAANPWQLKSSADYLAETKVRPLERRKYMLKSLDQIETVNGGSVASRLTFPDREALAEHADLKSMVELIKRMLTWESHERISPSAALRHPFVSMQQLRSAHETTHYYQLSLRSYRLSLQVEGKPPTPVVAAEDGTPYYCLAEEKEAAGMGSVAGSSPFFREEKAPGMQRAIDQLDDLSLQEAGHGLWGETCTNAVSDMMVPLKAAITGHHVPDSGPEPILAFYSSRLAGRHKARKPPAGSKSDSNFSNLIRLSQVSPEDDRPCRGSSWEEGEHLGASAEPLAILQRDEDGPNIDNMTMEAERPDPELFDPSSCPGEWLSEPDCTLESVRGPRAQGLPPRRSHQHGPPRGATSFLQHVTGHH

ADRBK1 (human) = ADRBK1 (human) (UniProt P25098)
MAP4K5 (human) = MAP4K5 (human) (UniProt Q9Y4K4)
STK11 (human) = STK11 (human) (UniProt Q15831)
PRKCE (human) = PRKCE (human) (UniProt Q02156)
IKBKE (human) = IKBKE (human) (UniProt Q14164)
CSNK1G3 (human) = CSNK1G3 (human) (UniProt Q9Y6M4)
ABL2 (human) = ABL2 (human) (UniProt P42684)
ABL2 (human), sequence (P42684 whole entry, looked up): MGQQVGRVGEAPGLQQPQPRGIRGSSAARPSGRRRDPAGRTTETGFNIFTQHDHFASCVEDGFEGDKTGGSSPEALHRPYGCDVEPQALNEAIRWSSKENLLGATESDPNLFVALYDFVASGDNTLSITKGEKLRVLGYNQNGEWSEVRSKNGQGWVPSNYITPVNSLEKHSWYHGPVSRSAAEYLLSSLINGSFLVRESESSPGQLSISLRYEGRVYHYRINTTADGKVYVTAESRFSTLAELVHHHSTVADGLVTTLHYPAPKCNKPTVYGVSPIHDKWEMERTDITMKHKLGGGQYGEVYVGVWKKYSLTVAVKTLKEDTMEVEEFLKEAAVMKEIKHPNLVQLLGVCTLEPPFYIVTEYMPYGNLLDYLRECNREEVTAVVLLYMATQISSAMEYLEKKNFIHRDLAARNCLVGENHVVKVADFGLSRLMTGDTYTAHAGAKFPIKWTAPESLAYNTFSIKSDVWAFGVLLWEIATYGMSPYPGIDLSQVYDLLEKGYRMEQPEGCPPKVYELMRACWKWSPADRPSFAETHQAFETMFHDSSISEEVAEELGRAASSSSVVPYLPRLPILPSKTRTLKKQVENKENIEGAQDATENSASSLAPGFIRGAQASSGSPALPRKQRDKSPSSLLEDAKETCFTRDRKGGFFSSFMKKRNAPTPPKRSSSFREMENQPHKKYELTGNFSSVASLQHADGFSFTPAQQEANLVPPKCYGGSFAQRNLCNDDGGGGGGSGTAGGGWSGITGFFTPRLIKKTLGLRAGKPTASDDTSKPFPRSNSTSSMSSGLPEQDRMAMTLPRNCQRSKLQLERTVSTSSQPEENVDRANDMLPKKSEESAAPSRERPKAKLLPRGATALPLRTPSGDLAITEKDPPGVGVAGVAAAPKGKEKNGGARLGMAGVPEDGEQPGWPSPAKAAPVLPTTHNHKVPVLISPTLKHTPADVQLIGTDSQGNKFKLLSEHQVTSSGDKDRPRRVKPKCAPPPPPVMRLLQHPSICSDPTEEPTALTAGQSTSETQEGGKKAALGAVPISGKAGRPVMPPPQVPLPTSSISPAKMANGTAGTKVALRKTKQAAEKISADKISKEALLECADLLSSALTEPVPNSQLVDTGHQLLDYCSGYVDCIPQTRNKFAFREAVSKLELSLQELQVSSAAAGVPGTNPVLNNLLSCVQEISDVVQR

EPHA7 (human) = EPHA7 (human) (UniProt Q15375)
EPHA7 (human), sequence (Q15375 whole entry, looked up): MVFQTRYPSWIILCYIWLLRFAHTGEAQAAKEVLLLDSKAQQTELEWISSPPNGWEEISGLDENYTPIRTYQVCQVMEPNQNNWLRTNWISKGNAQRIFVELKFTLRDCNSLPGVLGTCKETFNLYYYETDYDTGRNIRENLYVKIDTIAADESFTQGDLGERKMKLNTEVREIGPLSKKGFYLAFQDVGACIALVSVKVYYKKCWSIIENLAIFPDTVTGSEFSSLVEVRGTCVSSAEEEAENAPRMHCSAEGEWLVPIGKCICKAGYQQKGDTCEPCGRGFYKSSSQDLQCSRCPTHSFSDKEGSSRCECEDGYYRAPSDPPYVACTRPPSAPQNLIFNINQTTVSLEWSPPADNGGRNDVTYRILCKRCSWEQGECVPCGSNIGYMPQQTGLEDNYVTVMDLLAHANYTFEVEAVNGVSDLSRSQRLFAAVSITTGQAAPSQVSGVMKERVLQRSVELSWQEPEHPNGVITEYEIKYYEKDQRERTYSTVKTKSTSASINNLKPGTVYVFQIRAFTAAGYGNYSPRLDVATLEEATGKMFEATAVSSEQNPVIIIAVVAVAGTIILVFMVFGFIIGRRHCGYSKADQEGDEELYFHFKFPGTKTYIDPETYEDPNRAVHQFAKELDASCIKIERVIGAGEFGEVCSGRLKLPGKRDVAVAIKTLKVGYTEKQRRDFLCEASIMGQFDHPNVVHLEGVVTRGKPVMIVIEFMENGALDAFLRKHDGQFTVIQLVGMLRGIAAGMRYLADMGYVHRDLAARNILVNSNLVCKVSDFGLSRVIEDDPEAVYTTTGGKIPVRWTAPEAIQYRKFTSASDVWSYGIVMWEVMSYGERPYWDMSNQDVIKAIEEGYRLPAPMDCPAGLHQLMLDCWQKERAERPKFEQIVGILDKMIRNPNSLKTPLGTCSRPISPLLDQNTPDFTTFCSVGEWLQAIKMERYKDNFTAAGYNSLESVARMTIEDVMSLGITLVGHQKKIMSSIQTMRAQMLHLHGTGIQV

TSSK2 (human) = TSSK2 (human) (UniProt Q96PF2)
PRKCB2 (human) = PRKCB2 (human) (UniProt P05771)
CDK4 CCND3 (human) = CDK4 CCND3 (human) (UniProt P30281+P11802)
STK10 (human) = STK10 (human) (UniProt O94804)
CDK9 CCNT1 (human) = CDK9 CCNT1 (human) (UniProt P50750+O60563)
MST1R (human) = MST1R (human) (UniProt Q04912)
PHKG1 (human) = PHKG1 (human) (UniProt Q16816)
PHKG1 (human), sequence (Q16816 whole entry, looked up): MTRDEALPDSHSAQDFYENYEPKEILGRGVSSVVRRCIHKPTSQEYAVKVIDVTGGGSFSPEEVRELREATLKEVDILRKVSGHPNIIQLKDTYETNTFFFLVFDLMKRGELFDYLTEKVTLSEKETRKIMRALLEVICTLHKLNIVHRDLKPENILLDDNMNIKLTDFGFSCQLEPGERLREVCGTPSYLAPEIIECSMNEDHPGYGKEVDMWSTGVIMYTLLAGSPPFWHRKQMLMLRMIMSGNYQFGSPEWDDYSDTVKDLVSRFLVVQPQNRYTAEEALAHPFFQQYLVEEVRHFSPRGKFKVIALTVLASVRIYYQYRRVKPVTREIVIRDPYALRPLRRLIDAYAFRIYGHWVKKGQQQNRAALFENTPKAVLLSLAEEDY

MLTK (human) = MLTK (human) (UniProt Q9NYL2)
CAMK1 (human) = CAMK1 (human) (UniProt Q14012)
PTK2 (human) = PTK2 (human) (UniProt Q05397)
NEK7 (human) = NEK7 (human) (UniProt Q8TDX7)
STK39 (human) = STK39 (human) (UniProt Q9UEW8)
CDK1 CCNA2 (human) = CDK1 CCNA2 (human) (UniProt P06493+P20248)
CDK1 CCNA2 (human), sequence (P06493 whole entry, looked up): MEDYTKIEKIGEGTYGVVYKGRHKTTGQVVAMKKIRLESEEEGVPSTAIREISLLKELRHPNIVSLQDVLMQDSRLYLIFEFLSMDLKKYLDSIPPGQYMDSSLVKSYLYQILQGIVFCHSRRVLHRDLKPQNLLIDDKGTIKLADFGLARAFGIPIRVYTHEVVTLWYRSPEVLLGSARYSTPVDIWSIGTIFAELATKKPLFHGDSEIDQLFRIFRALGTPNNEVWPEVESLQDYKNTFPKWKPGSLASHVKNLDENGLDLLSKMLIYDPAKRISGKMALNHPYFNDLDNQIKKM
CDK1 CCNA2 (human), sequence (P20248 whole entry, looked up): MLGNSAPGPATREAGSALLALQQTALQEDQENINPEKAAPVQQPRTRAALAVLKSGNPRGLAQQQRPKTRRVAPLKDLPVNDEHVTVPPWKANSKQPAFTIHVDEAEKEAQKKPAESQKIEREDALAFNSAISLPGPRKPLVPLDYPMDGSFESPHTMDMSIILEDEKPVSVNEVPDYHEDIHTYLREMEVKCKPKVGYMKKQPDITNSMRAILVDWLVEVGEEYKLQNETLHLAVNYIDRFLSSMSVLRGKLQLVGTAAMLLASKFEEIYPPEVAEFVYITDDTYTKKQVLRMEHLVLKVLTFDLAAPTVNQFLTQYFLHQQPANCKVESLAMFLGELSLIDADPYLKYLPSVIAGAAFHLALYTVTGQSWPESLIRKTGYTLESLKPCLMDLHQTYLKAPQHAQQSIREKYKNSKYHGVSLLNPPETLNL

AKT3 (human) = AKT3 (human) (UniProt Q9Y243)
AKT3 (human), sequence (Q9Y243 whole entry, looked up): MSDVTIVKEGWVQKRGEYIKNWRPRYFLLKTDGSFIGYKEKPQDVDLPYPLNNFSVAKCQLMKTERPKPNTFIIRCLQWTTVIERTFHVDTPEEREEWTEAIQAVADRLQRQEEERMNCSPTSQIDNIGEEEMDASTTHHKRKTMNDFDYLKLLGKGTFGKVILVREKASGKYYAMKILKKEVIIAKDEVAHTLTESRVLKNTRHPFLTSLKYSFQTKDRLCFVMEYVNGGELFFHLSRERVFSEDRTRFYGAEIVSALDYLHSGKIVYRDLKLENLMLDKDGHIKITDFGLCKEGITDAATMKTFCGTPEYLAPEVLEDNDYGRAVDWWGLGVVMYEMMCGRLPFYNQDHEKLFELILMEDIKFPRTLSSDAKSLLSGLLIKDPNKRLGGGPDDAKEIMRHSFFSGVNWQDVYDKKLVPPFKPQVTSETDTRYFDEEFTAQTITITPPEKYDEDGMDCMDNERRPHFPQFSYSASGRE

NTRK3 (human) = NTRK3 (human) (UniProt Q16288)
MET (human) = MET (human) (UniProt P08581)

Compound: O=C1NC(=O)C(c2c[nH]c3ccccc23)=C1c1c[nH]c2ccccc12
- residual activity (CAMK2B (human)): 96.9%
- residual activity (GRK6 (human)): 101%
- residual activity (MARK1 (human)): 90.6%
- residual activity (TGFBR1 (human)): 96.6%
- residual activity (NEK4 (human)): 96.4%
- residual activity (ACVR1 (human)): 97.1%
- residual activity (CDK2 CCNE1 (human)): 71.4%
- residual activity (LIMK1 (human)): 103%
- residual activity (GRK7 (human)): 91.8%
- residual activity (CAMK1D (human)): 106%
- residual activity (CDK4 CCND1 (human)): 97.4%
- residual activity (PRKG1 (human)): 76.8% and 82.4%
- residual activity (CLK2 (human)): 46.7%
- residual activity (MAP3K14 (human)): 91%
- residual activity (CAMKK2 (human)): 92.8%
- residual activity (PRKD1 (human)): 97.6%
- residual activity (HIPK4 (human)): 109%
- residual activity (ADRBK1 (human)): 98.4%
- residual activity (MAP4K5 (human)): 87.1%
- residual activity (STK11 (human)): 107%
- residual activity (PRKCE (human)): 24%
- residual activity (IKBKE (human)): 103%
- residual activity (CSNK1G3 (human)): 89.9%
- residual activity (ABL2 (human)): 82.3%
- residual activity (EPHA7 (human)): 94.3%
- residual activity (TSSK2 (human)): 110%
- residual activity (PRKCB2 (human)): 42.9%
- residual activity (CDK4 CCND3 (human)): 89.8%
- residual activity (STK10 (human)): 49.6%
- residual activity (CDK9 CCNT1 (human)): 89.9%
- residual activity (MST1R (human)): 93.1%
- residual activity (PHKG1 (human)): 74.9%
- residual activity (MLTK (human)): 107%
- residual activity (CAMK1 (human)): 105%
- residual activity (PTK2 (human)): 101%
- residual activity (NEK7 (human)): 99.9%
- residual activity (STK39 (human)): 93.6%
- residual activity (CDK1 CCNA2 (human)): 96.3%
- residual activity (AKT3 (human)): 90%
- residual activity (NTRK3 (human)): 72.5%

Compound: Cn1cnc2cc3c(Nc4cccc(Br)c4)ncnc3cc21
- residual activity (CAMK2B (human)): 102%
- residual activity (GRK6 (human)): 107%
- residual activity (MARK1 (human)): 94.3%
- residual activity (TGFBR1 (human)): 97.6%
- residual activity (NEK4 (human)): 96.8%
- residual activity (ACVR1 (human)): 109%
- residual activity (CDK2 CCNE1 (human)): 78.2%
- residual activity (LIMK1 (human)): 99%
- residual activity (GRK7 (human)): 106%
- residual activity (CAMK1D (human)): 104%
- residual activity (CDK4 CCND1 (human)): 84%
- residual activity (PRKG1 (human)): 97.8% and 98%
- residual activity (CLK2 (human)): 93.9%
- residual activity (MAP3K14 (human)): 90.6%
- residual activity (CAMKK2 (human)): 99.6%
- residual activity (PRKD1 (human)): 99.4%
- residual activity (HIPK4 (human)): 88.6%
- residual activity (ADRBK1 (human)): 100%
- residual activity (MAP4K5 (human)): 56.1%
- residual activity (STK11 (human)): 91.1%
- residual activity (PRKCE (human)): 87.8%
- residual activity (IKBKE (human)): 98.7%
- residual activity (CSNK1G3 (human)): 88.1%
- residual activity (ABL2 (human)): 37%
- residual activity (EPHA7 (human)): 72%
- residual activity (TSSK2 (human)): 111%
- residual activity (PRKCB2 (human)): 95.4%
- residual activity (CDK4 CCND3 (human)): 95.9%
- residual activity (STK10 (human)): 35.8%
- residual activity (CDK9 CCNT1 (human)): 88.5%
- residual activity (MST1R (human)): 96.5%
- residual activity (PHKG1 (human)): 85%
- residual activity (MLTK (human)): 93.3%
- residual activity (CAMK1 (human)): 106%
- residual activity (PTK2 (human)): 108%
- residual activity (NEK7 (human)): 99.4%
- residual activity (MET (human)): 101%
- residual activity (STK39 (human)): 111%
- residual activity (CDK1 CCNA2 (human)): 95.8%
- residual activity (AKT3 (human)): 89.5%
- residual activity (NTRK3 (human)): 81.4%

Compound: O=C1Cc2c([nH]c3ccc(Br)cc23)-c2ccccc2N1
- residual activity (CAMK2B (human)): 97.8%
- residual activity (GRK6 (human)): 105%
- residual activity (MARK1 (human)): 88.3%
- residual activity (TGFBR1 (human)): 97.7%
- residual activity (NEK4 (human)): 98.9%
- residual activity (ACVR1 (human)): 162%
- residual activity (CDK2 CCNE1 (human)): 51.9%
- residual activity (LIMK1 (human)): 99.2%
- residual activity (GRK7 (human)): 100%
- residual activity (CAMK1D (human)): 112%
- residual activity (CDK4 CCND1 (human)): 84%
- residual activity (PRKG1 (human)): 93% and 95.9%
- residual activity (CLK2 (human)): 95.7%
- residual activity (MAP3K14 (human)): 106%
- residual activity (CAMKK2 (human)): 77.8%
- residual activity (PRKD1 (human)): 101%
- residual activity (HIPK4 (human)): 105%
- residual activity (ADRBK1 (human)): 103%
- residual activity (MAP4K5 (human)): 30.1%
- residual activity (STK11 (human)): 95.7%
- residual activity (PRKCE (human)): 96.9%
- residual activity (IKBKE (human)): 89.8%
- residual activity (CSNK1G3 (human)): 103%
- residual activity (ABL2 (human)): 84.9%
- residual activity (EPHA7 (human)): 101%
- residual activity (TSSK2 (human)): 99.3%
- residual activity (PRKCB2 (human)): 102%
- residual activity (CDK4 CCND3 (human)): 89%
- residual activity (STK10 (human)): 89.8%
- residual activity (CDK9 CCNT1 (human)): 31.3%
- residual activity (MST1R (human)): 93.6%
- residual activity (PHKG1 (human)): 49.7%
- residual activity (MLTK (human)): 88.5%
- residual activity (CAMK1 (human)): 106%
- residual activity (PTK2 (human)): 94.3%
- residual activity (NEK7 (human)): 94.3%
- residual activity (STK39 (human)): 90.1%
- residual activity (CDK1 CCNA2 (human)): 88.5%
- residual activity (AKT3 (human)): 105%
- residual activity (NTRK3 (human)): 70.7%
